{"source": "patent US20150110847A1", "about": "“Substrate Mediated Enzymes Prodrug Therapy” (Aarhus Universitet, priority 2012, published 2015)", "key": {"HepG2 [1]": {"test_system": "HepG2", "experiment": "Cellular internalization of in situ generated fluorescent product, flow cytometry (FIG. 4)", "type": "cell-based", "conditions": "for levels of cellular fluorescence (cargo internalization): enzyme in μS PVA hydrogel, versus solution based conversion; for levels of cellular fluorescence (cargo internalization) / fluorescence of cultured cells: 2.5 μg/mL, 24 h; for fluorescence of cultured cells: prodrug in absence of the enzyme", "procedure": "FIG. 4. Utility of SMEPT in generation and cellular internalization of in situ produced product is verified through quantification of fluorescence of hepatic cells cultured on the μS PVA hydrogels. […] Experimental conditions: (A) 1 g/L enzyme in the polymer solution; initial concentration of fluorescein diglucuronide, 2.5 μg/mL; incubation time 24 h; (B) 1 g/L enzyme in the polymer solution; initial concentration of fluorescein diglucuronide 0.25 (top) and 0.025 (bottom) […].\nTowards this goal, hydrogels were prepared using solutions of PVA supplemented with a synthetic polypeptide, poly-L-lysine (PLL). […] Enzyme- and PLL-containing PVA hydrogels were assembled as described above, after which time μS thin films were used as substrates for adhesion and proliferation of a model cell line, HepG2. […] Furthermore, advanced efforts in engineering of liver tissue require co-culturing of mammalian cells (e.g. hepatocytes and Kupffer cells), a challenge which is successfully addressed using μS and micro-patterned substrates. These notions together justify the use of a hepatic cell line and μS PVA hydrogels for the development of SMEPT.\nInitial, internalization of a fluorescent reporter molecule produced via SMEPT and via a solution-based conversion was compared. To achieve this, the cells were seeded on μS PVA hydrogels and were allowed 24 h for attachment, after which time the media was changed to fresh media and, for solution based prodrug conversion, equivalent amount of the enzyme as that contained within μS PVA hydrogels was administered to the cultured cells. At this point, the samples were charged with fluorescein di-glucuronide to a 2.5 μg/mL concentration (3.65 μM). Upon 24 h incubation, fluorescence of the harvested cells was quantified using flow cytometry. […] We note that solution based prodrug conversion is used herein only as a measure to verify protein activity and utility of SMEPT. In the human body, β-glucuronidase has a limited spread and an activity markedly lower as compared to bacterial copy used in this study. The latter notion provides for a low level of “background” prodrug conversion and contributes to specificity of drug delivery achieved with the use of β-glucuronidase and glucuronide prodrugs, as documented for ADEPT and inherited by SMEPT.\nFor further characterization of SMEPT, the time course of cellular internalization of the in situ generated fluorescent reporter product was followed at two concentrations of the fluorogenic pro-drug, 0.025 and 0.25 μg/mL (36.5 and 365 nM, respectively). At specified time points, fluorescence of the detached cells was quantified using flow cytometry, FIG. 19B. […] Further to this, at each time point, higher pro-drug concentration affords a higher level of fluorescence registered in the cultured cells, i.e. a greater amount of internalized cargo. Together, these two graphs present time- and dose-dependent internalization of reporter cargo and illustrate the tools of control offered by SMEPT for substrate mediated drug delivery."}, "b-glucuronidase": {"target": "T1, b-glucuronidase (Escherichia coli, UniProt P05804)", "T1 construct": "purchased", "T1 sequence (P05804 whole entry, the tested form may be a part)": "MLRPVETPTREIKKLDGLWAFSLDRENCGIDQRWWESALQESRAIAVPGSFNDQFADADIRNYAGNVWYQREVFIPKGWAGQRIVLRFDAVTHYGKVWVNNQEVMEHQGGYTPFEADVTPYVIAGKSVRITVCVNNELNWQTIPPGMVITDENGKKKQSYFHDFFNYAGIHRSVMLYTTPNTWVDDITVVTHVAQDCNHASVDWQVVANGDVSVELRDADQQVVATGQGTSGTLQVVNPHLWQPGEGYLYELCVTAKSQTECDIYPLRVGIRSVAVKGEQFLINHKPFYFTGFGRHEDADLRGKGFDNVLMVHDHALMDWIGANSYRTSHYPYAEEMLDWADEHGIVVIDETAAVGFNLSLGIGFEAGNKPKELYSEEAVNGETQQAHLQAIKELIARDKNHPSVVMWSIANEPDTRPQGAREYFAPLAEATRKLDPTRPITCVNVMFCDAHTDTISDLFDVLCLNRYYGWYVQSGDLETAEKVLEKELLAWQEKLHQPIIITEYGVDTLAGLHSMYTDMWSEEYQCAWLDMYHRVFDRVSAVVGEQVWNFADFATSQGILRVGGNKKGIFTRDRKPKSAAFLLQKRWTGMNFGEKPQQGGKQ", "experiment": "Prodrug conversion in flow by biocatalytic LbL films in perfusion chambers (FIG. 23)", "type": "biochemical", "conditions": "constant flow", "procedure": "For evaluation of the enzymatic activity the prodrug fluorescein di-glucuronide, FdG, of 5 μg/mL was added to syringes and connected to the coated perfusion chambers. A syringe pump was used to control the shear stress using 0.15, 0.074, 0.03 dyn/cm^2. An “on demand” conversion of prodrug under flow conditions a syringe with buffer was used as a control. The “on” and “off” was then controlled by the switch of syringes to the given μ-slide chamber.\nFor multiple layers of enzyme the PEMs were constructed as (PMA/PLL)4 keeping the total amount of layers constant and adding the enzyme in between each layer of PLL.\nAll evaluations were measured out on the PlateReader by collecting aliquots from the outlet tubing during the experiment and transferred to a 96-well pate.\nA unique opportunity associated with multilayered surface coatings relates to the possibility to build films with a desired thickness for which polymer adsorption can be performed to a desired number of layers. Similarly, LbL deposition would allow controlling the amount of enzyme within the thin film through a facile change in the number of protein deposition steps. To show this, polymer coatings were assembled using one or three layers of adsorbed β-Glu keeping the total number of polymer layers constant. […] While a single layer of the enzyme achieved a <[…] concentration of the product, three protein layers suffice for a build-up of product concentration to over 30 nM, all achieved under dynamic, constant flow conditions."}, "HepG2 [2]": {"test_system": "HepG2", "experiment": "SMEPT using static cell culture on LbL films, PrestoBlue cell viability (FIG. 21)", "procedure": "Glass cover-slips. LbL assembly of PMA and PLL with incorporated enzyme was performed on glass cover-slips to evaluate the therapeutic effect of SN-38 under static conditions. Glass cover slips of 9 mm were sonicated in ethanol for 10 minutes, rinsed with ultrapure water, and dried with argon prior to UV sterilization for 20 minutes in a 48 well plate. Solutions of PLL and PMA, were incubated at 37° C. for 10 min prior to film assembly. Alternating layers were composed as (PLL/PMA)2.5-b-glucuronidase-(PMA/PLL)2 or […] for films without enzyme. Each layer was allowed to adsorb for 10 min at 37° C. followed by a washing step in HEPES buffer. The enzyme b-glucuronidase was added at a concentration of 20 μg/mL in HEPES buffer solution.\n(§1) Cell Culture. The hepatocellular carcinoma cell line (HepG2) was used for all cell experiments. HEPG2 were cultured in a 75 cm^2 culture flask (3E6 cells/flask) in 10 mL medium (Minimum Essential Medium Eagle (MEME) supplemented with 10% fetal bovine serum (FCB), 1% penicillin and streptomycin, 1% non-essential amino acids, and 2 mM L-glutamine) and incubated at 37° C. and 5% CO2.\nStatic cell culture. The LbL coated glass slides were UV sterilized for 10 minutes prior to cell seeding. HepG2 cells with a starting density of 75.000 cells in 300 μL were seeded per well. The cells were allowed to adhere overnight before adding the (pro)drug SN-38 of 1 μM and incubate for 48 h. 200 μL of fresh media was added together with 20 μL of PrestoBlue cell viability reagent and evaluated on an EnspireMultilabel Plate Reader after 30 minutes of incubation.\nA glucuronide prodrug of a commercial anticancer drug, SN-38, was used. […] Further, hepatocellular carcinoma (HCC) is a condition successfully addressed using tools for localized drug delivery, but solitary drugs are currently accommodated for this mode of delivery.\nHepatocytes were seeded on the biocatalytic film (PLL/PMA)2.5/β-Glu/(PGA/PMA)2 and allowed to adhere overnight before refreshing the media and adding the (pro)drug at 1 μM."}, "HepG2 [3]": {"test_system": "HepG2", "procedure": "as §1"}, "HepG2 [4]": {"test_system": "HepG2", "experiment": "Cell viability in three sequentially connected perfusion chambers, site-specific delivery (FIG. 25)", "type": "cell-based", "conditions": "for viability of cells reduced to: 1 μM, 4 h flow, further 48 h culture", "source_text": "For the evaluation of drug delivery to subsequent chambers tubings were connected so that the flow of solution would enter the first chamber containing PEMs with enzyme and subsequent flow to chamber 2 and chamber 3 with cell culture on TCPS.\nIt is assumed that when the drug is synthesized within the coating immediately underneath the cultured cells, through increased local concentration of the drug, the synthesized therapeutic would exert a higher local effect in adhering cells as compared to the cells growing “downstream”. […] Outlet from chamber 1 was connected to the inlet for chamber 2, and in turn, outlet of chamber 2 was connected to the inlet of chamber 3. Hepatocytes were seeded in all three chambers, but only the cells in chamber 1 were cultured on biocatalytic coatings. Solution of SN-38 glucuronide (1 μM in cell culture media) was administered to the interconnected perfusion chambers at constant shear stress for 4 h. Subsequently, the perfusion chambers were flushed with (pro)drug-free media and the cells were cultured for a further 48 h, prior to the assessment of the cell viability.\nThe viability of cells cultured on biocatalytic coatings was reduced to ˜30% verifying a pronounced therapeutic response achieved via SMEPT under flow conditions. Viability of cells in chamber two was reduced to ˜60% thus being much higher than that for cells cultured on biocatalytic coatings. Taking into account dose response of HepG2 cells to SN-38, viability difference between 30% and 60% corresponds to ˜10-fold difference in the concentration of the drug used for the treatment. […] It is therefore highly likely that local therapeutic effect would exceed that at “downstream” location to a greater extent than illustrated in FIG. 25. Our data provide experimental proof of the site-specific drug delivery achieved via SMEPT and thus, illustrate therapeutic advantage associated with this technique."}, "cells cultured on μS PVA": {"test_system": "cells cultured on μS PVA", "experiment": "Viability of cells on μS PVA hydrogels with enzyme and/or prodrug (FIG. 17)", "type": "cell-based", "conditions": "full SMEPT conditions: μS PVA with immobilized enzyme and 1 μM SN-38 glucuronide", "source_text": "FIG. 17: Viability of cells on μS hydrogels with enzyme and/or prodrug."}, "HepG2 [5]": {"test_system": "HepG2", "conditions": "previously shown by the applicants; cited from earlier work"}, "b-Galactosidase": {"test_system": "b-Galactosidase", "procedure": "Microstructured PVA hydrogels were assembled using polymer solutions containing b-Galactosidase (1 g/L), stabilized using 0.5 M sodium sulfate and incubated in PBS for 1 h prior analysis. We used a substrate for b-Gal conversion of which affords nitric oxide (NO), a potent and multi-functional signaling and therapeutic molecule. This radical—molecule has a very short half-life and is rapidly converted into nitrite/nitrate, and the latter are conventionally used to quantify the levels of generated nitric oxide. Analysis of nitrite is conducted via a Griess assay, i.e. a colorimetric test establishing a linear correlation between the concentration of nitrite and absorbance at 530 nm; cf. FIG. 31.\nb-Gal-NONOate was administered onto the enzyme-functionalized hydrogels at varied concentrations and incubated for 30 min, upon which the levels of […] were quantified via the Griess assay."}}, "note": "Like-named read-outs stand apart in the source and are kept apart here."}
{"compound": "O=C1OC2(c3ccc(O[C@@H]4O[C@H](C(=O)O)[C@@H](O)[C@H](O)[C@H]4O)cc3Oc3cc(O[C@@H]4O[C@H](C(=O)O)[C@@H](O)[C@H](O)[C@H]4O)ccc32)c2ccccc21", "note": "[fluorescein di-glucuronide]", "values": [{"measurement": "fluorescence of cells over time", "setting": "HepG2 [1]; SMEPT, 0.025 and 0.25 μg/mL, earliest time-point 1 h", "value": "pronounced increase in the fluorescence of cells"}, {"measurement": "levels of cellular fluorescence (cargo internalization)", "setting": "HepG2 [1]; SMEPT", "value": "comparable to that produced by a solution based administration"}, {"measurement": "levels of cellular fluorescence (cargo internalization)", "setting": "HepG2 [1]; SMEPT, listed as fluorescein diglucuronide", "value": "comparable levels of fluorescence of cultured cells"}, {"measurement": "fluorescence of cultured cells", "setting": "HepG2 [1]", "value": "fluorescence identical to pristine, non-treated cells"}, {"measurement": "fluorescence of cultured cells", "setting": "HepG2 [1]; listed as fluorescein diglucuronide", "value": "negligible change in the fluorescence of cultured cells"}, {"measurement": "amount of product synthesized in unit time, 3 versus 1 layers of adsorbed protein", "setting": "b-glucuronidase; identical prodrug concentration", "value": "approximately 3 ×"}, {"measurement": "concentration of the product", "setting": "b-glucuronidase; single layer of the enzyme", "value": "< 10", "unit": "nm"}, {"measurement": "concentration of the product", "setting": "b-glucuronidase; three protein layers", "value": "over 30 nM"}]}
{"compound": "CCc1c2c(nc3ccc(O)cc13)-c1cc3c(c(=O)n1C2)COC(=O)[C@]3(O)CC", "note": "[SN-38]", "values": [{"measurement": "reduction in viability of the hepatocytes compared with SMEPT", "setting": "HepG2 [2]", "value": "similar"}, {"measurement": "cell culture time required for a well-pronounced therapeutic effect", "setting": "HepG2 [3]", "value": "at least 48 h"}, {"measurement": "time the presence of the drug was required for a pronounced therapeutic effect", "setting": "HepG2 [3]", "value": "≥ 4", "unit": "h"}, {"measurement": "difference in the concentration of the drug corresponding to viability difference between 30% and 60%", "setting": "HepG2 [4]; from dose response of HepG2 cells to SN-38", "value": "~10", "unit": "fold"}]}
{"compound": "CCc1c2c(nc3ccc(O[C@@H]4O[C@H](C(=O)O)[C@@H](O)[C@H](O)[C@H]4O)cc13)-c1cc3c(c(=O)n1C2)COC(=O)[C@]3(O)CC", "note": "[SN-38 glucuronide]", "values": [{"measurement": "cytotoxic effect (viability of cells)", "setting": "cells cultured on μS PVA", "value": "cytotoxic effect which is comparable to the active drug SN-38"}, {"measurement": "cell viability reduced by", "setting": "HepG2 [2]; SMEPT: hepatocytes on β-Glu-containing LbL film, 1 μM, 48 h incubation, compared to control", "value": "~80", "unit": "%"}, {"measurement": "change in cell viability", "setting": "HepG2 [2]; prodrug on (PLL/PMA)4.5 coatings, no enzyme incorporated, 1 μM, 48 h", "value": "minor albeit statistically significant decrease in the cell viability"}, {"measurement": "reduction in viability of the hepatocytes compared with SMEPT", "setting": "HepG2 [2]; solution based EPT: prodrug and enzyme both in solution, enzyme-free LbL films, 1 μM, 48 h", "value": "similar"}, {"measurement": "decrease in cell viability by", "setting": "HepG2 [3]; 1 μM, 4 h flow on biocatalytic film, then static drug-free culture, total 48 h, normalized to cells without (pro)drug", "value": "~70", "unit": "%"}, {"measurement": "viability of cells reduced to", "setting": "HepG2 [4]; chamber 1, cells on biocatalytic coatings", "value": "~30", "unit": "%"}, {"measurement": "viability of cells reduced to", "setting": "HepG2 [4]; chamber two, downstream, no biocatalytic coating", "value": "~60", "unit": "%"}, {"measurement": "inherent cytotoxic effects on hepatocytes", "setting": "HepG2 [5]", "value": "did not have an inherent cytotoxic effects on hepatocytes"}]}
{"compound": "[O-]/[N+](=N\\O[C@@H]1O[C@H](CO)[C@H](O)[C@H](O)[C@H]1O)N1CCCC1", "note": "[b-Gal-NONOate]", "values": [{"measurement": "prodrug conversion/drug production of NO", "setting": "b-Galactosidase; absence of enzyme", "value": "no prodrug conversion/drug production of NO is observed"}, {"measurement": "administered dose converted", "setting": "b-Galactosidase; within 30 min of incubation, b-Galactosidase PVA hydrogels", "value": "approximately 50%"}]}
